We go through two molecules from US12213958B2, “Compositions, methods, systems and/or kits for preventing and/or treating neoplasms” (Research Cancer Institute of America, priority 2017, dated 2025).

Data set [1] deals with OVCAR 3 Cancer cells. The data set can be described thus: Nanoformulated quercetin in mice with implanted tumor. The settings on record: mouse, in vivo. How it is done: Animals—Immunodeficient, female athymic mice aged 5-6 weeks and weighing between 18 and 20 g were purchased from Taconic Biosciences (Albany, NY). All animal studies were conducted at the animal facility of the Veteran Affairs Medical Center, Albany, NY in accordance with and approved by institutional guidelines for humane animal treatment and according to the current guidelines. Mice were maintained under specific pathogen-free conditions and housed under controlled conditions of temperature (20-24° C.) and humidity (60-70%) and 12 h light/dark cycle with ad libitum access to water and food. Mice were allowed to acclimatize for 5 d prior to the start of study.
Treatment—OVCAR 3 Cancer cells (1×10^6) were implanted subcutaneously in right flank of each animal. In the first set of experiments, control, free Quercetin (3 mg/kg), NPS-quercetin(3 mg/kg), and FA-NPs-quercetin (3 mg/kg) were injected subcutaneously to the mice everyday (for 14 days). The control was PBS, after humane sacrifice of animals at 14 days, tumors were harvested and amount of QC was measured.

The conditions of data set [2]: cited from earlier work.
Data set [3] concerns glioma cells. The settings on record: cited from earlier work.

Turning to `O=c1c(O)c(-c2ccc(O)c(O)c2)oc2cc(O)cc(O)c12` [Free QC, quercetin], the “adverse toxic effect on the health of tumor bearing mice” value in data set [1] is recorded as “does not have any adverse toxic effect”.
With `O=c1c(O)c(-c2ccc(O)c(O)c2)oc2cc(O)cc(O)c12` [Quercetin, quercetin], the water solubility result in data set [2] is on record as “not water soluble”. The angiogenesis entry in data set [3] is “suppression of angiogenesis”.
